In US12600728B2, “Interleukin-17 inhibitors” (priority 2020, dated 2026) one finds IC50 data, which are given here for 21 compounds.

Where two headings read alike, the source gives them in different places.

Experiment [1] deals with recombinant human IL-17AA (Homo sapiens, UniProt Q16552). The experiment in a line: IL-6 release from NHDF cells, IL-17AA plus TNF-α stimulation. The format is cell-based. The note with it: IL-17AA 30 pM plus TNF-α 6 pM, 24 hours, IL-6 by ELISA. The method, boiled down:
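ELISA measured IL-6 in supernatants after 24 h at 37° C of NHDF cells with a compound/cytokine cocktail, pre-mixed 30 min at room temperature. Duplicates; 0.1% DMSO or 20% plasma final. IC50 from IL-6 remaining after subtracting the TNF-α-alone signal.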
(In an ELISA, binding on a coated surface is turned into a signal by an enzyme label.)

Experiment [2] deals with biotinylated human IL-17A / AF647-labeled human IL-17RA (Homo sapiens, UniProt Q16552). The experiment is described as follows: Human IL-17A×IL-17RA TR-FRET assay. The experiment is classed as binding. The conditions noted are these: biotinylated human IL-17A 5 nM, AF647-labeled human IL-17RA 30 nM. The method, boiled down: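 Compounds tested in duplicate at each concentration; neutral controls contain all components with DMSO in place of compound.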
(In general: Time-resolved FRET reads energy transfer from a long-lived donor to a nearby acceptor.)

Setting [3] is: NHDF cells, read-out: IL17AA + TNF IC50 IL-6.
The mark [4] stands for this setting: TR-FRET, read-out: IL17AA FRET/ IL17Rawt IC50.

Chain of biotinylated human IL-17A / AF647-labeled human IL-17RA (Q16552 24-155): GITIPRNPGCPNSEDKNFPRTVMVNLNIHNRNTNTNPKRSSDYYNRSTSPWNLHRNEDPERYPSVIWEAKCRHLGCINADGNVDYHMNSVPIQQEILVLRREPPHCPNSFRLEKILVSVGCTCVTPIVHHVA
Chain of recombinant human IL-17AA (Q16552 24-155): as above

Take `CCn1nccc1C(=O)NC(C(=O)Nc1ccc(-c2c(Cl)cc[n+]([O-])c2C)c(F)c1)C1CCC(F)(F)CC1` (stereo not drawn) [Example 108, 4-chloro-3-(4-(2-(4,4-difluorocyclohexyl)-2-(1-ethyl-1H-pyrazole-5-carboxamido)acetamido)-2-fluorophenyl)-2-methylpyridine 1-oxide]: the IC50 in experiment [1] (IL17AA + TNF IC50 IL-6, NHDF cells) is 7 nM; in experiment [2] (IL17AA FRET/ IL17Rawt IC50, TR-FRET), 30 nM.

For `Cc1cc[n+]([O-])c(C)c1-c1ccc(NC(=O)[C@@H](NC(=O)c2ccnn2C)C2CCC(F)(F)CC2)cc1F` [Example 109, 3-(4-((S)-2-(4,4-difluorocyclohexyl)-2-(1-methyl-1H-pyrazole-5-carboxamido)acetamido)-2-fluorophenyl)-2,4-dimethylpyridine 1-oxide], the IC50 was found to be 84 nM in experiment [1] (setting [3]) and 164 nM in experiment [2] (setting [4]).

In the case of `Cn1nccc1C(=O)N[C@H](C(=O)Nc1ccc(-c2c[n+]([O-])ccc2Cl)cc1)C1CCCCC1` [Example 112, (S)-4-chloro-3-(4-(2-cyclohexyl-2-(1-methyl-1H-pyrazole-5-carboxamido)acetamido)phenyl)pyridine 1-oxide], the values for the IC50 in experiment [1] (setting [3]) and in experiment [2] (setting [4]) were 162 nM and 1040 nM, respectively.

As to `Cc1cc(-c2ccc(NC(=O)[C@@H](NC(=O)c3ccnn3C)C3CCCCC3)cc2)c(C)[n+]([O-])c1` [Example 113, (S)-3-(4-(2-cyclohexyl-2-(1-methyl-1H-pyrazole-5-carboxamido)acetamido)phenyl)-2,5-dimethylpyridine 1-oxide], the results for the IC50 in experiment [1] (setting [3]) and in experiment [2] (setting [4]) were 38 nM and 339 nM, respectively.

As to `Cc1c(-c2ccc(NC(=O)[C@@H](NC(=O)c3ccnn3C)C3CCCCC3)cc2)cc(CO)c[n+]1[O-]` [Example 115, (S)-3-(4-(2-cyclohexyl-2-(1-methyl-1H-pyrazole-5-carboxamido)acetamido)phenyl)-5-(hydroxymethyl)-2-methylpyridine 1-oxide], the IC50 in experiment [1] (setting [3]) amounted to 201 nM; in experiment [2] (setting [4]), 1380 nM.

Regarding `Cc1c[n+]([O-])cc(C)c1-c1ccc(NC(=O)[C@@H](NC(=O)c2ccc3n2CCNC3)C2CCCCCC2)cc1` [Example 116, (S)-4-(4-(2-cycloheptyl-2-(1,2,3,4-tetrahydropyrrolo[1,2-a]pyrazine-6-carboxamido)acetamido)phenyl)-3,5-dimethylpyridine 1-oxide], the IC50 in experiment [1] (setting [3]) is 118 nM; in experiment [2] (setting [4]) it was 304 nM.

With `Cc1c[n+]([O-])cc(C)c1-c1ccc(NC(=O)[C@@H](NC(=O)c2ccc3n2CCN(C)C3)C2CCCCCC2)cc1` [Example 117, (S)-4-(4-(2-cycloheptyl-2-(2-methyl-1,2,3,4-tetrahydropyrrolo[1,2-a]pyrazine-6-carboxamido)acetamido)phenyl)-3,5-dimethylpyridine 1-oxide], the results for the IC50 in experiment [1] (setting [3]) and in experiment [2] (setting [4]) were 121 nM and 161 nM, respectively.

On to `CC(=O)N1CCn2c(ccc2C(=O)N[C@H](C(=O)Nc2ccc(-c3c(C)c[n+]([O-])cc3C)cc2)C2CCCCCC2)C1` [Example 118, (S)-4-(4-(2-(2-acetyl-1,2,3,4-tetrahydropyrrolo[1,2-a]pyrazine-6-carboxamido)-2-cycloheptylacetamido)phenyl)-3,5-dimethylpyridine 1-oxide], for which the IC50 in experiment [1] (setting [3]) was found to be 20 nM; in experiment [2] (setting [4]), 183 nM.

As to `Cc1cc[n+]([O-])c(C)c1-c1ccc(NC(=O)[C@@H](NC(=O)c2ccn3c2CN(C)CC3)C2CCCCCC2)cc1` [Example 119, (S)-3-(4-(2-cycloheptyl-2-(2-methyl-1,2,3,4-tetrahydropyrrolo[1,2-a]pyrazine-8-carboxamido)acetamido)phenyl)-2,4-dimethylpyridine 1-oxide], the figures for the IC50 in experiment [1] (setting [3]) and in experiment [2] (setting [4]) were 15 nM and 130 nM, respectively.

Regarding `Cc1cc[n+]([O-])c(C)c1-c1ccc(NC(=O)[C@@H](NC(=O)c2ccc3n2CCN(C)C3)C2CCCCCC2)cc1` [Example 120, (S)-3-(4-(2-cycloheptyl-2-(2-methyl-1,2,3,4-tetrahydropyrrolo[1,2-a]pyrazine-6-carboxamido)acetamido)phenyl)-2,4-dimethylpyridine 1-oxide], the IC50 in experiment [1] (setting [3]) amounted to 4 nM; in experiment [2] (setting [4]) it was 94 nM.

In the case of `Cc1cc[n+]([O-])c(C)c1-c1ccc(NC(=O)C(NC(=O)c2ccc3n2CCN(C)C3)C2CCC(C)CC2)cc1` [Example 121, 2,4-dimethyl-3-(4-((S)-2-(2-methyl-1,2,3,4-tetrahydropyrrolo[1,2-a]pyrazine-6-carboxamido)-2-((1r,4S)-4-methylcyclohexyl)acetamido)phenyl)pyridine 1-oxide], the figures for the IC50 in experiment [1] (setting [3]) and in experiment [2] (setting [4]) were 17 nM and 111 nM, respectively.

For the compound `Cc1c(-c2ccc(NC(=O)[C@@H](NC(=O)c3ccc4n3CCN(C)C4)C3CCCCCC3)cc2F)c(Cl)cc[n+]1[O-]` [Example 122, 4-chloro-3-(4-((S)-2-cycloheptyl-2-(2-methyl-1,2,3,4-tetrahydropyrrolo[1,2-a]pyrazine-6-carboxamido)acetamido)-2-fluorophenyl)-2-methylpyridine 1-oxide], the IC50 in experiment [1] (setting [3]) stood at 9 nM; in experiment [2] (setting [4]), 128 nM.

Take `Cc1c(-c2ccc(NC(=O)[C@@H](NC(=O)c3ccc4n3CCN(C)C4)C3CCC(F)(F)CC3)cc2)c(Cl)cc[n+]1[O-]` [Example 123, (S)-4-chloro-3-(4-(2-(4,4-difluorocyclohexyl)-2-(2-methyl-1,2,3,4-tetrahydropyrrolo[1,2-a]pyrazine-6-carboxamido)acetamido)phenyl)-2-methylpyridine 1-oxide]: the IC50 worked out at 59 nM in experiment [1] (setting [3]) and 150 nM in experiment [2] (setting [4]).

On to `Cc1c(-c2ccc(NC(=O)[C@@H](NC(=O)c3ccc4n3CCN(C)C4)C3CCCCC3)cc2F)c(Cl)cc[n+]1[O-]` [Example 124, 4-chloro-3-(4-((S)-2-cyclohexyl-2-(2-methyl-1,2,3,4-tetrahydropyrrolo[1,2-a]pyrazine-6-carboxamido)acetamido)-2-fluorophenyl)-2-methylpyridine 1-oxide], for which the IC50 in experiment [1] (setting [3]) was 8 nM; in experiment [2] (setting [4]), 172 nM.

As to `Cc1cc[n+]([O-])c(C)c1-c1ccc(NC(=O)C(NC(=O)c2ccc3n2CCN(C)C3)C2CCC(C(F)(F)F)CC2)cc1` [Example 125, 2,4-dimethyl-3-(4-((S)-2-(2-methyl-1,2,3,4-tetrahydropyrrolo[1,2-a]pyrazine-6-carboxamido)-2-((1r,4S)-4-(trifluoromethyl)cyclohexyl)acetamido)phenyl)pyridine 1-oxide], the IC50 in experiment [1] (setting [3]) was 18 nM; in experiment [2] (setting [4]), 174 nM.

Turning to `Cc1c(-c2ccc(NC(=O)[C@@H](NC(=O)c3ccc4n3CCN(C)C4)C3CCCCC3)cc2F)ccc[n+]1[O-]` [Example 126, (S)-3-(4-(2-cyclohexyl-2-(2-methyl-1,2,3,4-tetrahydropyrrolo[1,2-a]pyrazine-6-carboxamido)acetamido)-2-fluorophenyl)-2-methylpyridine 1-oxide], the IC50 in experiment [1] (setting [3]) is 62 nM; in experiment [2] (setting [4]) it was 228 nM.

As for `Cc1cc[n+]([O-])c(C)c1-c1ccc(NC(=O)[C@@H](NC(=O)c2ccc3n2CCN(C)C3)C2CCCCC2)cc1` [Example 127, (S)-3-(4-(2-cyclohexyl-2-(2-methyl-1,2,3,4-tetrahydropyrrolo[1,2-a]pyrazine-6-carboxamido)acetamido)phenyl)-2,4-dimethylpyridine 1-oxide], the values for the IC50 in experiment [1] (setting [3]) and in experiment [2] (setting [4]) were 12 nM and 236 nM, respectively.

As for `Cc1cc[n+]([O-])c(C)c1-c1ccc(NC(=O)[C@@H](NC(=O)c2ccc3n2CCN(C)C3)C2CC=C(F)CC2)cc1` (stereo partly drawn) [Example 128, 3-(4-((2S)-2-(4-fluorocyclohex-3-en-1-yl)-2-(2-methyl-1,2,3,4-tetrahydropyrrolo[1,2-a]pyrazine-6-carboxamido)acetamido)phenyl)-2,4-dimethylpyridine 1-oxide], the IC50 in experiment [1] (setting [3]) worked out at 54 nM; in experiment [2] (setting [4]), 299 nM.

As to `Cc1cc[n+]([O-])c(C)c1-c1ccc(NC(=O)[C@H](Cc2ccccc2Cl)NC(=O)c2ccc3n2CCN(C)C3)cc1` [Example 130, (S)-3-(4-(3-(2-chlorophenyl)-2-(2-methyl-1,2,3,4-tetrahydropyrrolo[1,2-a]pyrazine-6-carboxamido)propanamido)phenyl)-2,4-dimethylpyridine 1-oxide], the IC50 in experiment [1] (setting [3]) was 956 nM; in experiment [2] (setting [4]), 124 nM.

Turning to `Cc1c(-c2ccc(NC(=O)[C@@H](NC(=O)c3ccc4n3CCN(C3COC3)C4)C3CCCCC3)cc2F)c(Cl)cc[n+]1[O-]` [Example 133, 4-chloro-3-(4-((S)-2-cyclohexyl-2-(2-(oxetan-3-yl)-1,2,3,4-tetrahydropyrrolo[1,2-a]pyrazine-6-carboxamido)acetamido)-2-fluorophenyl)-2-methylpyridine 1-oxide], the IC50 in experiment [1] (setting [3]) was determined as 17 nM; in experiment [2] (setting [4]), 99 nM.

Take `CC(=O)N1CCn2c(ccc2C(=O)N[C@H](C(=O)Nc2ccc(-c3c(Cl)cc[n+]([O-])c3C)c(F)c2)C2CCCCCC2)C1` [Example 134, 3-(4-((S)-2-(2-acetyl-1,2,3,4-tetrahydropyrrolo[1,2-a]pyrazine-6-carboxamido)-2-cycloheptylacetamido)-2-fluorophenyl)-4-chloro-2-methylpyridine 1-oxide]: the IC50 amounted to 7 nM in experiment [1] (setting [3]) and 72.8 nM in experiment [2] (setting [4]).
